Experimental data taken from publication PMC11545999, “Angular-Substituted [1,4]Thiazino[3,4-a]Isoquinolines: Biological Evaluation and In Silico Studies on DPP-IV Inhibition” (International Journal of Molecular Sciences, 2024).

Biological target: T1, DPP-IV (Homo sapiens, UniProt P27487)
T1 construct: gene DPP4
Test: fluorogenic AMC substrate cleavage assay (SensoLyte AMC DPP-IV Assay Kit)
Assay type: biochemical

T1 sequence (P27487 39-766): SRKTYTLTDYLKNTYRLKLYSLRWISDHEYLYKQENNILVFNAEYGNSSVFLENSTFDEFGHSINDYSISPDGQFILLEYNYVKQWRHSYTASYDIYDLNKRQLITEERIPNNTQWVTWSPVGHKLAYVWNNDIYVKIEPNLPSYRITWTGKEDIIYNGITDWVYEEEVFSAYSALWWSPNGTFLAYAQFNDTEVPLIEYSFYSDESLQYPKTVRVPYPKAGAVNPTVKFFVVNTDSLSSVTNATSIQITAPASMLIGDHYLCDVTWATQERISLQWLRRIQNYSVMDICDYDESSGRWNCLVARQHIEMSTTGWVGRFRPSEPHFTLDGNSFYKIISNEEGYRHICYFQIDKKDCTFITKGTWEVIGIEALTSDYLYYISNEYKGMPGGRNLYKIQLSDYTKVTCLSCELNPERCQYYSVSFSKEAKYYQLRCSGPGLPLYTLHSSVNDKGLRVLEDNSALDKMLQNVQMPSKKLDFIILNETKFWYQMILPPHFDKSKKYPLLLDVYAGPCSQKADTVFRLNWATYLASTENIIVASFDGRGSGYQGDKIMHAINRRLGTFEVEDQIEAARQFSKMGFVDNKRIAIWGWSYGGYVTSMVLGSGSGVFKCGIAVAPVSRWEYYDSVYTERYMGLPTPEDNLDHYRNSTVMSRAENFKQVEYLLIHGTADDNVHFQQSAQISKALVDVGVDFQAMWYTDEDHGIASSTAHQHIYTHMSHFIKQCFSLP

Compound	IC50
COc1cc2c(cc1OC)[C@@]1(c3ccc(C(F)(F)F)cc3)[C@@H](C(=O)O)SCC(=O)N1CC2 (relative stereo) [4f]	15.9 µM
COc1cc2c(cc1OC)[C@@]1(c3ccc(F)cc3)[C@@H](C(=O)O)SCC(=O)N1CC2 (relative stereo) [4g]	0.35 µM
COc1cc2c(cc1OC)C1C(C(=O)O)SCC(=O)N1CC2 (stereo not drawn) [4a]	41.1 µM
